The values below come from patent US20120202856A1, “SUBSTITUTED BENZIMDAZOLE DERIVATIVES USEFUL AS TRPM8 RECEPTOR MODULATORS” (priority 2011, published 2012).

One assay addresses T1, canine TRPM8 (Canis lupus familiaris, UniProt Q1A7N1).
T1 construct: expressed in transfected cells
Put plainly: In Vitro Canine TRPM8 Functional Assay (intracellular Ca2+ fluorescence, icilin activation, HEK293 cells). In kind it is cell-based. The conditions noted are these: for IC50: HEK293 cells expressing canine TRPM8, icilin activation, individually measured values (batches/salt forms), read-out: IC50 (nM), in vitro TRP M8 Activity; for inhibition at 0.2 µM / % Inh (%) @0.2 μM, in vitro TRP M8 Activity: individually measured values; for % Inh (%) @0.2 μM, in vitro TRP M8 Activity: 0.2 μM test compound. In short, it runs like this: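 HEK293 cells expressing canine TRPM8 loaded with Calcium 3 dye, then stimulated with icilin; intracellular Ca2+ rise read on FLIPR or FDSS. Peak fluorescence minus basal normalized to percent maximal response; IC50 from sigmoidal nonlinear regression of quadruplicate wells.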

Assay [1] concerns icilin-induced “wet-dog” shakes (WDS). Put plainly: Inhibition of Icilin-Induced “Wet-Dog” Shakes in Rats. It is filed as in vivo, Sprague Dawley rats. The conditions noted are these: po; for inhibition in vivo at 10 mg/kg / inhibition in vivo at 3 mg/kg: read-out: Icilin % Inhibition @1.5 hrs. The method, then:
The test compound was administered in 10% hydroxypropyl-β-cyclodextrin (HP-13-CD), p.o., 60 min before icilin.
% Inhibition=[1−(test compound WDS count/vehicle WDS count)]×100.

Setting [2] is: rat, p.o., dose 10 mg/kg, 1.5 hrs.
The mark [3] stands for this setting: HEK293, 0.2 μM test compound, read-out: % Inh (%) @0.2 μM, in vitro TRP M8 Activity.
Setting [4] is: rat, p.o., dose 3 mg/kg, 1.5 hrs.
Setting [5] is: HEK293, read-out: % Inh (%) @0.2 μM, in vitro TRP M8 Activity, 0.2 μM test compound.

Values joined by “and” are separate entries in the source; they are usually repeats but may differ in a detail not shown here. Equal values may be shown once. Where a name gives a salt, the structure may show the parent alone. Read-outs that look alike come from different tables or passages of the source.

T1 sequence (Q1A7N1 1-1104): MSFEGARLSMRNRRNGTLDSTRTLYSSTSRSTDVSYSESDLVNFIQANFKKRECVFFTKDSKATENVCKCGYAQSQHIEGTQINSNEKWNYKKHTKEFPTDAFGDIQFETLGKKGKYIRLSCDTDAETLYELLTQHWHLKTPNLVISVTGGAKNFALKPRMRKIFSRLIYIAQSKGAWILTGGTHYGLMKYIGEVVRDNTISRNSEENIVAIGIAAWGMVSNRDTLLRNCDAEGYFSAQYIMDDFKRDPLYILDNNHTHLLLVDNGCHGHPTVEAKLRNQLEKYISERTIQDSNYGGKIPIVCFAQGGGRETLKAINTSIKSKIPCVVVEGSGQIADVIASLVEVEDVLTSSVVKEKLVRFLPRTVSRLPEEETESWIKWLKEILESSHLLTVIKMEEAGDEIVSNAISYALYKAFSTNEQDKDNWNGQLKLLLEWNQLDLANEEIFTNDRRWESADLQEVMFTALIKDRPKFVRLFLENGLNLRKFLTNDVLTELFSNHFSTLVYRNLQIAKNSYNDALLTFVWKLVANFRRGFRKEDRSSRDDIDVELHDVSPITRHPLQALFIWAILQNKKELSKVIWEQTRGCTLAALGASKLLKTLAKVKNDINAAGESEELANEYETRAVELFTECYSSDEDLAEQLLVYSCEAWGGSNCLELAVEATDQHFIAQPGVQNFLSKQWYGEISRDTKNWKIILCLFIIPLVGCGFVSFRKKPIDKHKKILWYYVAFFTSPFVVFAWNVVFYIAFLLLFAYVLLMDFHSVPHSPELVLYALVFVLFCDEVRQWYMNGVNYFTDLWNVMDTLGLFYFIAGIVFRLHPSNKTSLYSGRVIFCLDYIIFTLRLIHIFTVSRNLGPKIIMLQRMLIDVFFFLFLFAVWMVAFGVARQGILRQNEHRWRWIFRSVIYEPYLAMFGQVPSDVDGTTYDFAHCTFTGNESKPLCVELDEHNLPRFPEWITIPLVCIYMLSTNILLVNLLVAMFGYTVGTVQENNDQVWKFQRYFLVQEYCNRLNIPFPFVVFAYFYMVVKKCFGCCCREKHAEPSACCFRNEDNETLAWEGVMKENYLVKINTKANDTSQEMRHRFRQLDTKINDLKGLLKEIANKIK

Regarding `Cn1nc(C(C)(C)C)c(Cl)c1-c1nc2cc(-c3ccccc3C(F)(F)F)ccc2[nH]1` [Compound 50, 2-(5-tert-Butyl-4-chloro-2-methyl-2H-pyrazol-3-yl)-5-(2-trifluoromethylphenyl)-1H-benzimidazole sodium salt], the IC50 at canine TRPM8 is 14 nM and 8.2 nM and 2.2 nM. Moreover, in assay [1] (setting [2]), the inhibition in vivo at 10 mg/kg was determined as 47.4%.
For `Cc1c(C(C)(C)C)nn(C)c1-c1nc2cc(-c3c(F)cccc3F)cc(Cl)c2[nH]1` [Compound 136, 2-(5-tert-Butyl-2,4-dimethyl-2H-pyrazol-3-yl)-7-chloro-5-(2,6-difluoro-phenyl)-1H-benzimidazole hydrochloride], the inhibition at 0.2 µM on canine TRPM8 (setting [3]) worked out at 100%. Besides, the IC50 on canine TRPM8 is 8.2 nM and 9 nM. In assay [1] (setting [4]), the inhibition in vivo at 3 mg/kg was 61.6%.
Take `Cn1nc(C(C)(C)C)c(Cl)c1-c1nc2cc(-c3c(F)cccc3OC(F)(F)F)cc(Cl)c2[nH]1` [Compound 130, 2-(5-tert-Butyl-4-chloro-2-methyl-2H-pyrazol-3-yl)-7-chloro-5-(2-fluoro-6-trifluoromethoxy-phenyl)-1H-benzimidazole hydrochloride]: the inhibition at 0.2 µM on canine TRPM8 (setting [3]) turned out to be 100%. In addition, the IC50 on canine TRPM8 was 10.7 nM and 5.3 nM. The inhibition in vivo at 3 mg/kg in assay [1] (setting [4]) is 22.7%.
As to `CCn1nc(C(C)(C)C)cc1-c1nc2cc(-c3ccccc3C(F)(F)F)ccc2[nH]1` [Compound 44, 2-(5-tert-Butyl-2-ethyl-2H-pyrazol-3-yl)-5-(2-trifluoromethylphenyl)-1H-benzimidazole sodium salt], the IC50 at canine TRPM8 turned out to be 15.8 nM. For the same compound, in assay [1] (Rattus norvegicus, 1.5 h), the inhibition in vivo at 10 mg/kg stood at 30%.
On to `Cn1nc(C(C)(C)C)c(Cl)c1-c1nc2cc(-c3c(F)cccc3C(F)(F)F)cc(Cl)c2[nH]1.[Na]` [Compound 113, 2-(5-tert-Butyl-4-chloro-2-methyl-2H-pyrazol-3-yl)-7-chloro-5-(2-fluoro-6-trifluoromethyl-phenyl)-1H-benzimidazole sodium salt], for which the “% Inh (%) @0.2 μM, in vitro TRP M8 Activity” value (“% Inh (%) @0.2 μM” for short) on canine TRPM8 (sodium salt, 0.2 µM) stood at 100%. For the same compound, at canine TRPM8 (setting [5]), the inhibition at 0.2 µM stood at 99%. The IC50 on canine TRPM8 is 2.4 nM and 3.5 nM and 4.4 nM. Besides, the inhibition in vivo at 3 mg/kg in assay [1] (Rattus norvegicus, 1.5 h) came to 2.8%.
For the compound `CC(C)(C)c1cc(-c2nc3cc(-c4ccccc4C(F)(F)F)ccc3[nH]2)on1` [Compound 9, 2-(3-tert-Butylisoxazol-5-yl)-5-(2-trifluoromethylphenyl)-1H-benzimidazole sodium salt], the IC50 on canine TRPM8 is 17.4 nM and 12 nM. In addition, in assay [1] (setting [2]), the inhibition in vivo at 10 mg/kg turned out to be 66.4%.
In the case of `Cn1nc(C(C)(C)C)c(C#N)c1-c1nc2cc(-c3ccccc3C(F)(F)F)cc(Cl)c2[nH]1` [Compound 169, 3-tert-Butyl-5-[7-chloro-5-(2-trifluoromethyl-phenyl)-1H-benzimidazol-2-yl]-1-methyl-1H-pyrazole-4-carbonitrile sodium salt], at canine TRPM8 (setting [3]), the inhibition at 0.2 µM came to 100%. On canine TRPM8, the IC50 turned out to be 8 nM. Besides, in assay [1] (setting [4]), the inhibition in vivo at 3 mg/kg came out at 34%.
On to `Cc1c(C(C)(C)C)nn(C)c1-c1nc2cc(-c3c(F)cccc3C(F)(F)F)ccc2[nH]1` [Compound 78, 2-(5-tert-Butyl-2,4-dimethyl-2H-pyrazol-3-yl)-5-(2-fluoro-6-trifluoromethyl-phenyl)-1H-benzimidazole sodium salt], for which, at canine TRPM8, the IC50 came to 1 nM. For the same compound, the inhibition in vivo at 10 mg/kg in assay [1] (Rattus norvegicus, 1.5 h) is 99.3%.
For the compound `Cc1c(C(C)(C)C)nn(C)c1-c1nc2cc(-c3ccccc3F)cc(Cl)c2[nH]1` [Compound 133, 2-(5-tert-Butyl-2,4-dimethyl-2H-pyrazol-3-yl)-7-chloro-5-(2-fluoro-phenyl)-1H-benzimidazole hydrochloride], the inhibition at 0.2 µM at canine TRPM8 (setting [3]) is 99%. On canine TRPM8, the IC50 is 12.6 nM and 10.2 nM. Also, the inhibition in vivo at 3 mg/kg in assay [1] (setting [4]) stood at 4.6%.
As to `Cn1nc(C(C)(C)C)c(Cl)c1-c1nc2cc(-c3c(F)cccc3C(F)(F)F)cc(C(F)(F)F)c2[nH]1` [Compound 125, 2-(5-tert-Butyl-4-chloro-2-methyl-2H-pyrazol-3-yl)-5-(2-fluoro-6-trifluoromethyl-phenyl)-7-trifluoromethyl-1H-benzimidazole sodium salt], at canine TRPM8 (setting [5]), the inhibition at 0.2 µM is 100%. On canine TRPM8, the IC50 was 3.2 nM and 1.7 nM. Further, the inhibition in vivo at 3 mg/kg in assay [1] (Rattus norvegicus, 1.5 h) worked out at 24.6%.
For the compound `Cn1nc(C(C)(C)C)c(C#N)c1-c1nc2cc(-c3ccccc3OC(F)(F)F)cc(Cl)c2[nH]1` [Compound 170, 3-tert-Butyl-5-[7-chloro-5-(2-trifluoromethoxy-phenyl)-1H-benzimidazol-2-yl]-1-methyl-1H-pyrazole-4-carbonitrile sodium salt], the inhibition at 0.2 µM at canine TRPM8 (setting [3]) was determined as 100%. The IC50 on canine TRPM8 was found to be 12.4 nM. The inhibition in vivo at 3 mg/kg in assay [1] (setting [4]) amounted to 4.3%.
As for `Cn1nc(C(C)(C)C)c(Cl)c1-c1nc2cc(-c3ccccc3Cl)cc(Cl)c2[nH]1.[Na]` [Compound 115, 2-(5-tert-Butyl-4-chloro-2-methyl-2H-pyrazol-3-yl)-7-chloro-5-(2-chloro-phenyl)-1H-benzimidazole sodium salt], on canine TRPM8, the “% Inh (%) @0.2 μM” value was 100, 100%; the IC50 was 2.2 nM and 5.6 nM and 4.9 nM. Also, on canine TRPM8 (setting [3]), the inhibition at 0.2 µM is 100%. Also, the inhibition in vivo at 3 mg/kg in assay [1] (setting [4]) was 45%.
Take `Cl.Cn1nc(C(C)(C)C)c(Cl)c1-c1nc2cc(-c3ccccc3C(F)(F)F)cc(Cl)c2[nH]1` [Compound 116, 2-(5-tert-Butyl-4-chloro-2-methyl-2H-pyrazol-3-yl)-7-chloro-5-(2-trifluoromethyl-phenyl)-1H-benzimidazole hydrochloride]: at canine TRPM8 (hydrochloride, 0.2 µM), the “% Inh (%) @0.2 μM” value came to 100%. For the same compound, the inhibition at 0.2 µM on canine TRPM8 (setting [3]) was determined as 99%. Further, on canine TRPM8, the IC50 is 2.6 nM and 5.8 nM and 5.5 nM. Also, the inhibition in vivo at 3 mg/kg in assay [1] (setting [4]) worked out at 47.7%.
As for `Cc1c(C(C)(C)C)nn(C)c1-c1nc2cc(-c3ccccc3C(F)(F)F)ccc2[nH]1` [Compound 76, 2-(5-tert-Butyl-2,4-dimethyl-2H-pyrazol-3-yl)-5-(2-trifluoromethylphenyl)-1H-benzimidazole sodium salt], the IC50 at canine TRPM8 worked out at 6 nM. In addition, the inhibition in vivo at 10 mg/kg in assay [1] (Rattus norvegicus, 1.5 h) is 98.6%.
In the case of `Cn1nc(C(C)(C)C)cc1-c1nc2cc(-c3c(F)cccc3F)ccc2[nH]1` [Compound 58, 2-(5-tert-Butyl-2-methyl-2H-pyrazol-3-yl)-5-(2,6-difluoro-phenyl)-1H-benzimidazole trifluoroacetic acid salt], on canine TRPM8, the half-inhibitory concentration (IC50) was 14 nM and 17.3 nM. Besides, in assay [1] (rat, 1.5 hrs), the inhibition in vivo at 5.6 mg/kg stood at 11.2%.
Regarding `Cc1cc(-c2ccccc2C(F)(F)F)cc2nc(-c3cc(C(C)(C)C)nn3C)[nH]c12` [Compound 79, 2-(5-tert-Butyl-2-methyl-2H-pyrazol-3-yl)-7-methyl-5-(2-trifluoromethylphenyl)-1H-benzimidazole hydrochloride], on canine TRPM8, the IC50 was 5 nM and 14.4 nM. This compound also displayed an inhibition in vivo at 5.6 mg/kg in assay [1] (rat, 1.5 hrs) of 20.1%.
In the case of `Cn1nc(C(C)(C)C)cc1-c1nc2cc(-c3c(F)cccc3C(F)(F)F)ccc2[nH]1` [Compound 61, 2-(5-tert-Butyl-2-methyl-2H-pyrazol-3-yl)-5-(2-fluoro-6-trifluoromethylphenyl)-1H-benzimidazole sodium salt], on canine TRPM8, the IC50 was 7.8 nM and 10 nM. The inhibition in vivo at 10 mg/kg in assay [1] (Rattus norvegicus, 1.5 h) turned out to be 38.8%.
Consider `Cl.Cn1nc(C(C)(C)C)c(Cl)c1-c1nc2cc(-c3ccccc3OC(F)(F)F)cc(Cl)c2[nH]1` [Compound 117, 2-(5-tert-Butyl-4-chloro-2-methyl-2H-pyrazol-3-yl)-7-chloro-5-(2-trifluoromethoxy-phenyl)-1H-benzimidazole hydrochloride], for which, at canine TRPM8, the “% Inh (%) @0.2 μM” value is 100, 100%; the IC50 is 7 nM and 11.3 nM and 8.4 nM. Moreover, at canine TRPM8 (setting [3]), the inhibition at 0.2 µM was determined as 100%. In addition, the inhibition in vivo at 3 mg/kg in assay [1] (setting [4]) is 7.7%.
In the case of `CC(C)c1cc(-c2nc3cc(-c4ccccc4C(F)(F)F)ccc3[nH]2)on1` [Compound 3, 2-(3-Isopropylisoxazol-5-yl)-5-(2-trifluoromethylphenyl)-1H-benzimidazole sodium salt], the IC50 at canine TRPM8 was 22 nM and 24 nM (2×) and 29 nM. Also, the inhibition in vivo at 30 mg/kg in assay [1] (rat, dose 30 mg/kg, 1.5 hrs) is 48.3%.
For `Cl.Cn1nc(C(C)(C)C)c(Cl)c1-c1nc2cc(-c3c(F)cccc3F)cc(Cl)c2[nH]1` [Compound 112, 2-(5-tert-Butyl-4-chloro-2-methyl-2H-pyrazol-3-yl)-7-chloro-5-(2,6-difluoro-phenyl)-1H-benzimidazole hydrochloride], on canine TRPM8, the “% Inh (%) @0.2 μM” value is listed as 99, 99%; the IC50 is 5.6 nM and 3.5 nM and 5.9 nM. Moreover, the inhibition at 0.2 µM on canine TRPM8 (setting [3]) worked out at 99%. In addition, the inhibition in vivo at 3 mg/kg in assay [1] (setting [4]) was 21.2%.
With `Cn1nc2c(c1-c1nc3cc(-c4ccccc4C(F)(F)F)ccc3[nH]1)CCCC2(C)C` [Compound 30, 2,7,7-Trimethyl-3-[5-(2-trifluoromethylphenyl)-1H-benzimidazol-2-yl]-4,5,6,7-tetrahydro-2H-indazole sodium salt], the IC50 on canine TRPM8 was found to be 36 nM.
Still for that read-out and setting: the result for `Cc1c(C(C)(C)C)noc1-c1nc2cc(-c3ccccc3F)ccc2[nH]1` [Compound 106, 2-(3-tert-Butyl-4-methyl-isoxazol-5-yl)-5-(2-fluoro-phenyl)-1H-benzimidazole hydrochloride] reads 21.8 nM.
For `Cn1nc(C(C)(C)C)c(C#N)c1-c1nc2cc(-c3c(F)cccc3F)cc(Cl)c2[nH]1` [Compound 171, 3-tert-Butyl-5-[7-chloro-5-(2,6-difluoro-phenyl)-1H-benzimidazol-2-yl]-1-methyl-1H-pyrazole-4-carbonitrile sodium salt], the inhibition at 0.2 µM on canine TRPM8 (setting [3]) was 100%. Besides, the IC50 on canine TRPM8 stood at 8.2 nM.

By IC50 is commonly meant the point on the concentration scale where inhibition reaches its midpoint.
